# From patent US20050010123A1, “Process for measuring QT intervals and constructing composite histograms to compare groups” (priority 2003, published 2005)
# Test: Beat-to-beat QTc interval histograms from 24-hour ambulatory ECG (Holter) recordings
# Format: in vivo, patients
# From the text: An example of this type of device is a Reynolds Medical Tracker II (Reynolds Medical, Hertford UK) recorder. […] For QT interval analysis, the sample rate can be between 128 and 2000 samples per seconds. The preferred embodiment is the use of a sample rate of at least of at least 1000 samples per second. These digital recorders must also be compatible with a Holter playback system that can produce beat-to beat interval measurements. An example of this type of device is the Reynolds Medical LifeCard CF recorder (Reynolds Medical, Hertford, UK). An example of the compatible Holter playback system is the Reynolds Medical Pathfinder 700 series. […]
# Using the digitized file of the electrocardiogram, a QT interval analysis may be accomplished in the following manner: The onset of a Q-wave (Qb) may be defined and a cursor may be placed at this point. […] The data from the digital file may then be replayed at 60-times normal time, while the cursors on the Qb and Te points may be monitored for stability. […] The QT intervals may be measured for the entire AECG recording on a beat-to-beat basis. […]
# The peak of an R-wave may be detected and a third cursor may be placed (Rp). […]
# In the examples described herein QTc was calculated by removing a time-series of the QT and preceding R--R intervals to a high-speed computer with both a fast processor and adequate disk storage space. […]
structure (smiles),measurement,setting,value
"COc1cc(N)c(Cl)cc1C(=O)NC1CCN(CCCOc2ccc(F)cc2)CC1OC (centres unmarked) [cisapride, Cisapride]",mean QTc interval,"QTc interval histogram of a single patient taking cisapride (FIG. 3), 24 hour AECG",440 ms
same,mean QTc,"composite curve of subjects on drug therapy (FIG. 4: subjects on cisapride), normal subjects 409 msec, ILQT 475 msec",430 ms
